In PubChem BioAssay (NCI):
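Protocol summary: plate cells (96-well), add compound at 5 concentrations, incubate 48 h, interpolate endpoints linearly. TGI denotes the concentration required for complete inhibition of growth.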

How the values were obtained:
Assay in all cases: NCI anticancer screen, dose series, 48 h
OVCAR-8 ovarian = tested on: OVCAR-8 ovarian
UACC-257 melanoma = tested on: UACC-257 melanoma
MDA-MB-435 = tested on: MDA-MB-435
NCI-H226 lung = tested on: NCI-H226 lung
EKVX NSCLC = tested on: EKVX NSCLC
UO-31 renal = tested on: UO-31 renal
K-562 leukemia = tested on: K-562 leukemia
MDA-N = tested on: MDA-N
DU-145 prostate = tested on: DU-145 prostate
MALME-3M melanoma = tested on: MALME-3M melanoma
IGROV1 ovarian = tested on: IGROV1 ovarian

SMILES	TGI (OVCAR-8 ovarian)	TGI (UACC-257 melanoma)	TGI (MDA-MB-435)	TGI (NCI-H226 lung)	TGI (EKVX NSCLC)	TGI (UO-31 renal)	TGI (K-562 leukemia)	TGI (MDA-N)	TGI (DU-145 prostate)	TGI (MALME-3M melanoma)	TGI (IGROV1 ovarian)
CCOP(=O)(OCC)/C(C#N)=C/c1ccc(-c2cc(C(F)(F)F)cc(C(F)(F)F)c2)o1	32 µM	30.6 µM	29 µM	32.6 µM	35 µM	34.9 µM	13.8 µM	27.2 µM	29.1 µM		
COc1cc(Nc2nc3cc(C(F)(F)F)ccc3nc2C(=O)O)cc(OC)c1OC	> 100 µM	> 100 µM	> 100 µM	> 100 µM	> 100 µM	> 100 µM		> 100 µM	> 100 µM	> 100 µM	> 100 µM
Cn1nnnc1SC(F)(F)c1nc2ccccc2o1	> 100 µM	> 100 µM	> 100 µM	> 100 µM		> 100 µM	> 100 µM	> 100 µM	> 100 µM	> 100 µM	> 100 µM
CCOC(=O)C(Cc1ccc(O)cc1)Nc1nc(=O)c2c(=O)oc(Cl)cc2o1 (stereo unspecified)	14 µM	29.7 µM	20.4 µM	42.5 µM	25.5 µM	23.8 µM	31.6 µM		51.1 µM	16.5 µM	19.4 µM
CC(=O)O[C@]12CCCCCC1C1(O)C(O)CCCCC12 (stereo partly specified)	> 100 µM	> 100 µM		> 100 µM	> 100 µM	> 100 µM	> 100 µM			> 100 µM	
N#Cc1cc2c(cc1Cl)Sc1nnc(Nc3ccccc3)n1S2(=O)=O	4.41 µM	3.58 µM	4.8 µM	5.99 µM	7.95 µM	3.89 µM	11.1 µM		5.2 µM	5 µM	5.76 µM
COC(=O)[C@@H](NC(=O)N(Cc1ccccc1)C[C@H](CC(C)C)NC(=O)[C@@H](NC(=O)OC(C)(C)C)C(C)C)C(C)C	> 100 µM	> 100 µM	> 100 µM	> 100 µM	> 100 µM	> 100 µM	> 100 µM	> 100 µM	> 100 µM	> 100 µM	
O=c1cc(NNc2cccc(Cl)c2)[nH]c(=O)[nH]1		> 100 µM		> 100 µM		> 100 µM	> 100 µM	> 100 µM	> 100 µM	30.6 µM	> 100 µM
Cc1ccc(NC(=O)C(=O)C2C(=O)NC(=O)NC2=O)cc1C	> 100 µM	> 100 µM		> 100 µM	> 100 µM	> 100 µM	> 100 µM			> 100 µM	> 100 µM
COc1cccc(-c2nc(-c3cnccn3)n(C/C=C/c3ccccc3)n2)c1	> 10 µM	> 10 µM	> 10 µM	> 10 µM	> 10 µM	> 10 µM	> 10 µM	> 10 µM		> 10 µM	> 10 µM
O=Cc1ccc(-c2ccc(-c3ccc(CO)s3)o2)s1	49 µM	0.506 µM	> 49.3 µM	0.291 µM	> 69.1 µM	> 71.3 µM	> 22.2 µM		> 71.6 µM	> 66.8 µM	
